Test results: ChEMBL document CHEMBL1201862, “PubChem BioAssay data set” (2004)
Activity calls are given as the source filed them.

Key:
[1] = molecular target: T1, Polyadenylate-binding protein 1 (Homo sapiens, UniProt P11940); assay: PABP1 MLLE–PAM2 binding inhibitor potency, dose response, biochemical, fluorescence polarization, FITC-PAM2 peptide (AID 602259); format: functional; conditions: read-out: IC50_Mean
[2] = molecular target: T1, Polyadenylate-binding protein 1; assay: PABP1 MLLE–PAM2 interaction inhibitors, dose response, miRNA deadenylation inhibitor project, biochemical, fluorescence polarization, Cy5-PAM2 peptide, secondary (AID 602260); format: functional; conditions: read-out: IC50_Mean
Protein Rev = Protein Rev (Human immunodeficiency virus type 1 group M subtype B (isolate HXB2)(HIV-1), UniProt P04618); assay: inhibitors of Rev binding to RRE RNA, dose response, biochemical, fluorescence polarization, HIV-1 (AID 434976); design: species or system Human immunodeficiency virus 1
[3] = molecular target: Female germline-specific tumor suppressor gld-1 (Caenorhabditis elegans, UniProt Q17339); assay: inhibitors of GLD-1 binding to TGE RNA, dose response, biochemical, fluorescence polarization, C. elegans (AID 2802);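 note: fluorescence polarization of labeled TGE RNA bound by purified gld-1 protein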
Cytochrome P450 2D6 = Cytochrome P450 2D6 (Homo sapiens, UniProt P10635); assay: qHTS Assay for Inhibitors and Substrates of Cytochrome P450 2D6. [Related pubchem assays: 410 ]; format: ADME; conditions: read-out: Potency
[4] = molecular target: G-protein coupled receptor 55 (Homo sapiens, UniProt Q9Y2T6); assay: GPR55 agonists via beta-arrestin recruitment, primary screen, imaging, U2OS cells, beta-arrestin-GFP redistribution (AID 1961); format: functional
[5] = molecular target: Lysosomal acid glucosylceramidase (Homo sapiens, UniProt P04062); assay: Dose response cell-based high throughput screening assay to identify enhancers of beta-glucosidase activity. [Related pubchem assays: 784 ]; format: functional
Cytochrome P450 2C19 = Cytochrome P450 2C19 (Homo sapiens, UniProt P33261); assay: qHTS Assay for Inhibitors and Substrates of Cytochrome P450 2C19. [Related pubchem assays: 410 ]; format: ADME; conditions: read-out: Potency
[6] = molecular target: T2, Tyrosine-protein phosphatase non-receptor type 7 (Homo sapiens, UniProt P35236); format: functional
T2 sequence (P35236 whole entry): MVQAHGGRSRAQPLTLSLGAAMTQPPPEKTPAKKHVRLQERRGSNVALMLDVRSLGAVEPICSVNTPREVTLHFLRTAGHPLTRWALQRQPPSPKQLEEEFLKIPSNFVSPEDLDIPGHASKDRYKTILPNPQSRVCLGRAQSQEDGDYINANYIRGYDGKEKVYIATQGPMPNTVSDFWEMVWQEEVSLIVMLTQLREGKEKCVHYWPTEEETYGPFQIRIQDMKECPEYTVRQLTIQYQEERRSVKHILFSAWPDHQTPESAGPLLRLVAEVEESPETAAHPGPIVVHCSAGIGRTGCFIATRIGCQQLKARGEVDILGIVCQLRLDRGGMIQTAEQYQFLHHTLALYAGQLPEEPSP

[7] = molecular target: Glyceraldehyde-3-phosphate dehydrogenase (Homo sapiens, UniProt P04406)
[8] = molecular target: T3, Dual specificity protein phosphatase 6 (Rattus norvegicus, UniProt Q64346); format: functional
T3 sequence (Q64346 whole entry): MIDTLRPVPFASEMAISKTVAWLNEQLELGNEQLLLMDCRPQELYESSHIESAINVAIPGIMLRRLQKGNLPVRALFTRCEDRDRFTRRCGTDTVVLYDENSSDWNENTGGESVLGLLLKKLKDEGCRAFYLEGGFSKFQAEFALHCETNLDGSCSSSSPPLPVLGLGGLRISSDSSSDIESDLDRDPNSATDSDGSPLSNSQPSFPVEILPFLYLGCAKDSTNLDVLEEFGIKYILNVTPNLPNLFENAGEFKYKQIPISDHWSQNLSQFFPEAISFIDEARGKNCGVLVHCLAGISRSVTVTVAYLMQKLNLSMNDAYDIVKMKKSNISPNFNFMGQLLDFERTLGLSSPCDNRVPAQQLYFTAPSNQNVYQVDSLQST

[9] = molecular target: T3, Dual specificity protein phosphatase 6
[10] = A cytotoxicity screen of small molecule inhibitors of the PhoP region in Salmonella typhi identified in the primary screen. [Related pubchem assays: 1850, 1864, 1985 ]; format: functional
[11] = molecular target: Voltage-dependent T-type calcium channel subunit alpha-1H (Homo sapiens, UniProt O95180); format: functional;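 note: channel activity triggered by adding a high calcium stimulation buffer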
[12] = system: Streptococcus sp. 'group A'; assay: growth inhibition of control SK(-) GAS strain, dose response, counter-screen for streptokinase expression inhibitor project, luminescence, kanamycin, BacTiterGlo, confirmation (AID 1900); format: functional, organism-based
[13] = cytotoxicity toward NIH3T3 fibroblasts, dose response, counter-screen, cell-based, ATP luminescence, mouse fibroblasts (AID 2010); format: functional;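 note: cells exposed to compound for about 90 hours before reading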
[14] = inhibitors of intracellular T. cruzi replication, confirmation, NIH3T3 host cells, beta-gal luminescence (AID 2044); format: functional, cell-based;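 note: intracellular parasites grown in NIH/3T3 mouse fibroblasts as host cells; luminescent beta-galactosidase reporter signal from transgenic T. cruzi replicating inside host cells; inhibitors lower the luminescence signal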
INS1 = assay: beta cell apoptosis inhibitors, cytokine rescue, dose response, luminescence, retest (AID 449756); format: functional, cell-based; conditions: Rattus norvegicus;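 note: cell death triggered by IL-1 beta plus TNF-alpha plus IFN-gamma mixture; protective hits raise ATP signal compared with cytokine alone wells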
Streptokinase A = molecular target: T4, Streptokinase A (Streptococcus pyogenes serotype M1, UniProt P10520); assay: S. pyogenes streptokinase expression inhibitors, potency, dose response, plasminogen activation absorbance, OD405 (AID 1914); format: functional, Streptococcus pyogenes M1 GAS;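 note: secreted streptokinase activity via plasminogen activation per viability signal from cell pellet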
T4 sequence (P10520 whole entry): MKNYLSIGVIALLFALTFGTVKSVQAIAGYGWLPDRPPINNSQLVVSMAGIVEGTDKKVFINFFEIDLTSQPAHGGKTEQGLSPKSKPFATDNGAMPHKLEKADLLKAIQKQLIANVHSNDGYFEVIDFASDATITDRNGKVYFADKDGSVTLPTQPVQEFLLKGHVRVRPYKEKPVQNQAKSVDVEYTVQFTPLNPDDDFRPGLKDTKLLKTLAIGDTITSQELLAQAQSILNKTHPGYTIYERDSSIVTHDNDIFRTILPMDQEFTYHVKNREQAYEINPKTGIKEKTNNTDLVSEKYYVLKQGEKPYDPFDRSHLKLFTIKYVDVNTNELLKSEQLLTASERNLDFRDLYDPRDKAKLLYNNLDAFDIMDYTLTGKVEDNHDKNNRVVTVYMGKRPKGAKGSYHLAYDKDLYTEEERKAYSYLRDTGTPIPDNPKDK

[15] = molecular target: Serine/threonine-protein phosphatase PP1-alpha catalytic subunit (Homo sapiens, UniProt P62136); assay: PP1 phosphatase inhibitors, dose response, biochemical, fluorescence (AID 2403);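 note: phosphatase turnover of OMFP into fluorescent 3-O-methylfluorescein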
[16] = molecular target: Serine/threonine-protein phosphatase (Homo sapiens, UniProt Q9BPW0); assay: Counterscreen for inhibitors of PP1: fluorescence-based biochemical high throughput dose response assay to identify inhibitors of Protein Phosphatase 5 (PP5). [Related pubchem assays: 2034 (Summary (PP5 inhibitors)), 1987 (PP5 inhibitors in singlate), 2235 (PP1 inhibitors in singlate)]
Streptococcus = assay: Group A Streptococcus viability loss, dose response, counter-screen for streptokinase expression inhibitor project, luminescence, BacTiterGlo (AID 1915); format: functional, organism-based;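 note: potency for reduction of bacterial viability or growth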
[17] = molecular target: DNA dC->dU-editing enzyme APOBEC-3A (Homo sapiens, UniProt P31941); assay: APOBEC3A DNA deaminase inhibitors, dose response, biochemical (AID 504722); format: functional
[18] = molecular target: DNA dC->dU-editing enzyme APOBEC-3G (Homo sapiens, UniProt Q9HC16); assay: Dose Response confirmation of small molecule APOBEC3G DNA Deaminase Inhibitors via a fluorescence-based single-stranded DNA deaminase assay. [Related pubchem assays (depositor defined):AID493012, AID493028]; format: functional
H9c2 = assay: cells; format: functional, cell-based; conditions: Rattus norvegicus, H9c2, Myocardium
[19] = inhibitors of SNCA 5'UTR-driven reporter translation, confirmation, H4 neuroglioma cells, luminescence (AID 1988); format: functional, cell-based
[20] = molecular target: T5, Zinc finger protein mex-5 (Caenorhabditis elegans, UniProt Q9XUB2); assay: MEX-5/TCR-2 RNA interaction inhibitors, dose response, biochemical, C. elegans, fluorescence polarization (AID 1960)
T5 sequence (Q9XUB2 whole entry): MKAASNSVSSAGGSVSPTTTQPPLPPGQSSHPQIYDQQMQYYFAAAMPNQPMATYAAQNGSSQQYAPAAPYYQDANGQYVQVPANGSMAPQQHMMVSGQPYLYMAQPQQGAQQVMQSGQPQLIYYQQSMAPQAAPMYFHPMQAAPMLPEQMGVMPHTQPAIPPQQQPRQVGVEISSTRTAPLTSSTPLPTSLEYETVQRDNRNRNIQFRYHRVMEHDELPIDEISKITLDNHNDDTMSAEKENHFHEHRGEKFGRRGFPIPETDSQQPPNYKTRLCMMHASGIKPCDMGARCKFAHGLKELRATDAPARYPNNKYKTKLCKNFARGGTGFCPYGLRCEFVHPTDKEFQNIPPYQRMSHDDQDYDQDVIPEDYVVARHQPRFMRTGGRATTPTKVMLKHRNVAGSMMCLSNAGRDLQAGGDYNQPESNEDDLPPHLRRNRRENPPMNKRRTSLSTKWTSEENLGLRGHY

[21] = luciferase reporter signal reduction – luminescence, H4-C neuroglioblastoma cells, dose response (AID 2458); format: functional, cell-based;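 note: H4 neuroglioblastoma cells stably carrying a luciferase reporter gene fusion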
[22] = inhibitors of SNCA 5'UTR-driven translation, confirmation, luminescence, H4 neuroglioblastoma cells, dose confirmation (AID 2454); format: functional, cell-based;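 note: H4 neuroglioblastoma cells carrying an alpha-synuclein 5'UTR luciferase reporter; potency for inhibition of the luciferase signal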
[23] = molecular target: T6, RNA-binding protein pos-1 (Caenorhabditis elegans, UniProt G5EF15); assay: inhibitors of POS-1/mex-3 RNA binding, dose response, biochemical, fluorescence polarization (AID 1964);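 note: purified POS-1 fused to maltose binding protein made in E. coli; potency of compounds blocking POS-1 binding to fluorescent RNA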
T6 sequence (G5EF15 whole entry): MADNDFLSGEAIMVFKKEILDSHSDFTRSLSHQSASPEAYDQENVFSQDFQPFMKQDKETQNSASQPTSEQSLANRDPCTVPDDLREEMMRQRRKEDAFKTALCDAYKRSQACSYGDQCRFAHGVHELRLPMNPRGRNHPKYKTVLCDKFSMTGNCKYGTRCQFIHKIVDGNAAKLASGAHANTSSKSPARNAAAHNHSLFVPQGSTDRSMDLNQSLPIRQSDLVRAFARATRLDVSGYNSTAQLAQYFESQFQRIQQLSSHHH

[24] = molecular target: T7, Heat shock factor protein 1 (Mus musculus, UniProt P38532); assay: inhibition of MG132-induced HSE-luciferase signal, confirmation, cell-based, NIH3T3, luminescence, dose retest (AID 2382); format: functional;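 note: NIH3T3 fibroblasts with HSF1-driven luciferase reporter stressed by proteasome inhibitor MG132; luminescence from HSF1-driven luciferase expression after 8 hours of MG132 stress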
T7 sequence (P38532 whole entry): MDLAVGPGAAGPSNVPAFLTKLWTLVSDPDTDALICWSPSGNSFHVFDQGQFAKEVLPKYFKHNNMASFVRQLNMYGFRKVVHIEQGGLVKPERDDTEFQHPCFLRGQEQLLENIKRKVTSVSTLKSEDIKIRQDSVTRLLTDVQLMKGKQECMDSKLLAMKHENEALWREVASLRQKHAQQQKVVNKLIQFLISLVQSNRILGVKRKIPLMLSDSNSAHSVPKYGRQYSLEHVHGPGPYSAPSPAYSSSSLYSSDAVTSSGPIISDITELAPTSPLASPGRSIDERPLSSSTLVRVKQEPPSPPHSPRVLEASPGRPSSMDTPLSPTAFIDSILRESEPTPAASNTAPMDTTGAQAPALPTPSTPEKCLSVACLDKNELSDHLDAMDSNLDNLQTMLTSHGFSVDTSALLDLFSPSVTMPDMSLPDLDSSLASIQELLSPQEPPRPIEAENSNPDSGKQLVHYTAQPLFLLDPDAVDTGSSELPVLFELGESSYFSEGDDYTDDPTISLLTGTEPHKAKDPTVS

cells = format: functional, cell-based

Chain of Lysosomal acid glucosylceramidase (P04062 whole entry): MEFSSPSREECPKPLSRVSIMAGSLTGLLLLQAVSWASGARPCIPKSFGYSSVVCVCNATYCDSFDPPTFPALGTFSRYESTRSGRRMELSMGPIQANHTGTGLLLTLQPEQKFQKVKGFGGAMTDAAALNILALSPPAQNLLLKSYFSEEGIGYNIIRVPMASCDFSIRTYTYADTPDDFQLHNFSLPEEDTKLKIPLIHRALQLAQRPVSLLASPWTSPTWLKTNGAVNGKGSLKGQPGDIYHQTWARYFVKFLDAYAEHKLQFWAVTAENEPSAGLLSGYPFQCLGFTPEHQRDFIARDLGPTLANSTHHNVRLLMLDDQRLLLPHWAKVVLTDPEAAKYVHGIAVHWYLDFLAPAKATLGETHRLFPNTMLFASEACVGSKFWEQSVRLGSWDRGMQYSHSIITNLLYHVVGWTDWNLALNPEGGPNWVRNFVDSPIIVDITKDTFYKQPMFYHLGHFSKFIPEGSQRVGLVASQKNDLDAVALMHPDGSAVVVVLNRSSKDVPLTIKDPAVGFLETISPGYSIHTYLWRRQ
Chain of Glyceraldehyde-3-phosphate dehydrogenase (P04406 whole entry): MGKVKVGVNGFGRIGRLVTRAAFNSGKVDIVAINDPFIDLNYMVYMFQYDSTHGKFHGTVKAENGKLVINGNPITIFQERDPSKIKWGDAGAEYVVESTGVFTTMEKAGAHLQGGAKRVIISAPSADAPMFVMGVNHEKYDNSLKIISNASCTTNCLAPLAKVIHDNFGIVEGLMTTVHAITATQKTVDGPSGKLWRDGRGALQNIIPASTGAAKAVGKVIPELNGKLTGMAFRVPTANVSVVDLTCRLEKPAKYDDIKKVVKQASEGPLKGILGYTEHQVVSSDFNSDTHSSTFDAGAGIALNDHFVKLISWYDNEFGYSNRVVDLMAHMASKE
Chain of Voltage-dependent T-type calcium channel subunit alpha-1H (O95180 whole entry): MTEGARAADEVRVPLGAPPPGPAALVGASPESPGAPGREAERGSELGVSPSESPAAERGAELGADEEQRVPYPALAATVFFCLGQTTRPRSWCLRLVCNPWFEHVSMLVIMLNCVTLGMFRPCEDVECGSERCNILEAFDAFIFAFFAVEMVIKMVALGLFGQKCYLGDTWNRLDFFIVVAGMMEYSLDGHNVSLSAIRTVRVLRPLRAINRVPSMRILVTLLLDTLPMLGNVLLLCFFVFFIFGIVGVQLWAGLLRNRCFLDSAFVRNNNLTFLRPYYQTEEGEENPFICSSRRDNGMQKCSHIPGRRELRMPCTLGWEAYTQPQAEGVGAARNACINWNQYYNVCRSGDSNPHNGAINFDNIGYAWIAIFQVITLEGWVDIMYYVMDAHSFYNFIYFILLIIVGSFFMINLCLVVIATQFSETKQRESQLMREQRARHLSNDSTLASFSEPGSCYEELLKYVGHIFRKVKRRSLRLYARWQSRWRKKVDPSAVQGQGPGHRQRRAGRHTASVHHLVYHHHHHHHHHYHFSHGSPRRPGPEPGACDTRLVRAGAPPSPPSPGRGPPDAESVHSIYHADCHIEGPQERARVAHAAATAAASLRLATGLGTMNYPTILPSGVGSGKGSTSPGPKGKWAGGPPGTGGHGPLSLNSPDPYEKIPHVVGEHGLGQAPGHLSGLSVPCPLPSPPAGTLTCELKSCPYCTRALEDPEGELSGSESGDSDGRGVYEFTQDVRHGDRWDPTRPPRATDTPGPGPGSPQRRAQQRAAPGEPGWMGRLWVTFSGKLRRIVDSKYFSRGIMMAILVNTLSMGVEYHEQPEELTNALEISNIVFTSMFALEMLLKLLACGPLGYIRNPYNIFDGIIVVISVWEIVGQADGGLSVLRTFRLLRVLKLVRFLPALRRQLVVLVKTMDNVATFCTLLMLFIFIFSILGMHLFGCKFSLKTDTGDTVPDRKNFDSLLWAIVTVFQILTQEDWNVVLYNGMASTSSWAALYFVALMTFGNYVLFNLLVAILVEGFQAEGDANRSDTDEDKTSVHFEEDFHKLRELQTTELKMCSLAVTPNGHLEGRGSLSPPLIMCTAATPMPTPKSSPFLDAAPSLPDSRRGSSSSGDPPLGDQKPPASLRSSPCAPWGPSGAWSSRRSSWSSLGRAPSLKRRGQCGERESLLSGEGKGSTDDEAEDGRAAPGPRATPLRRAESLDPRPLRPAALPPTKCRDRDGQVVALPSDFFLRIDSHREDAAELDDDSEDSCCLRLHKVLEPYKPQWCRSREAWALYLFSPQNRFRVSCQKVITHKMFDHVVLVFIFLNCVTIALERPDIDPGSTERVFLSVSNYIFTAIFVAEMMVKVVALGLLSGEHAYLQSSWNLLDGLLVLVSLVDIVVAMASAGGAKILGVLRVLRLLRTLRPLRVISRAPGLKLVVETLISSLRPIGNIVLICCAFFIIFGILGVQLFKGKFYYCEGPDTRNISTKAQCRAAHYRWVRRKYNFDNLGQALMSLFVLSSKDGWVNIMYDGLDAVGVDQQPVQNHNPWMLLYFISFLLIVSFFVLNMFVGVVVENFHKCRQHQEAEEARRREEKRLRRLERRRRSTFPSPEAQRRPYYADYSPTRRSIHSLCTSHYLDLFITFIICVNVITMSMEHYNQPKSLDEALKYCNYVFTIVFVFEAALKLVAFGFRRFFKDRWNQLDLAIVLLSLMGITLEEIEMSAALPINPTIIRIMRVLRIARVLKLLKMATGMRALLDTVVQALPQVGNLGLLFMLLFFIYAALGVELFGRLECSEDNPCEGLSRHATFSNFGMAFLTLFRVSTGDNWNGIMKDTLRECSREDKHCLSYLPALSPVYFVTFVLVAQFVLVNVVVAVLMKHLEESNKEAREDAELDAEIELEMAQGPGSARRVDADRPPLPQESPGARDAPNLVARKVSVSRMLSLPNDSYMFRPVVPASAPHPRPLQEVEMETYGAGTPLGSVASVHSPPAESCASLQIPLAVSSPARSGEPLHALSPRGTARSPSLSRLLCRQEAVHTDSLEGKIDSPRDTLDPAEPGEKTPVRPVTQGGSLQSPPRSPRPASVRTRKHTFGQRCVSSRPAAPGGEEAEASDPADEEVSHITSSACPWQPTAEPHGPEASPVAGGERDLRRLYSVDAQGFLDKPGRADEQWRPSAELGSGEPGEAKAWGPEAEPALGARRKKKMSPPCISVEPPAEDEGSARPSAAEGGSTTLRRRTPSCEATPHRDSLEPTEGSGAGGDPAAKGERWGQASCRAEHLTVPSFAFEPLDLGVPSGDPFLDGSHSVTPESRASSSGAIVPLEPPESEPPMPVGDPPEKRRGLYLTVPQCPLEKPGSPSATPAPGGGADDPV
T1 sequence (P11940 whole entry): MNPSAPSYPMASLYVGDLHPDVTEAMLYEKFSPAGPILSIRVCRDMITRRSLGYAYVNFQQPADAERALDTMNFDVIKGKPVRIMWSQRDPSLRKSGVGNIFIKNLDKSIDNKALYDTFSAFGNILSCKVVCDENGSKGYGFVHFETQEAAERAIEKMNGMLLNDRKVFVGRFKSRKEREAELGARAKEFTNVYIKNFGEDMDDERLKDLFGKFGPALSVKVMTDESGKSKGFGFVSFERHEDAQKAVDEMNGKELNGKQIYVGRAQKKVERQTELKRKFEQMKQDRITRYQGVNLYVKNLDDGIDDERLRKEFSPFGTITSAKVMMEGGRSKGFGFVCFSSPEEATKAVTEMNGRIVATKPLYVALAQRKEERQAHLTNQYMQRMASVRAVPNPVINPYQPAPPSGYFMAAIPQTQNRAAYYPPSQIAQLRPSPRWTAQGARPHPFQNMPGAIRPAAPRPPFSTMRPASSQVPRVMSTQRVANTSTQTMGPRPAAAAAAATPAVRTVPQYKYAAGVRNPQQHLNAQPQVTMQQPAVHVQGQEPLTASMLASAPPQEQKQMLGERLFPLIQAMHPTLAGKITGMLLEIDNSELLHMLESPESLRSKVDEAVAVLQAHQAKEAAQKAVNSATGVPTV
Chain of Protein Rev (P04618 whole entry): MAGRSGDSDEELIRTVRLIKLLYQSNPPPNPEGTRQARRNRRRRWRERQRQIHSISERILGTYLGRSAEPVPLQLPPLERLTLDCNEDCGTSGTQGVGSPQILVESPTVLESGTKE
Chain of Female germline-specific tumor suppressor gld-1 (Q17339 whole entry): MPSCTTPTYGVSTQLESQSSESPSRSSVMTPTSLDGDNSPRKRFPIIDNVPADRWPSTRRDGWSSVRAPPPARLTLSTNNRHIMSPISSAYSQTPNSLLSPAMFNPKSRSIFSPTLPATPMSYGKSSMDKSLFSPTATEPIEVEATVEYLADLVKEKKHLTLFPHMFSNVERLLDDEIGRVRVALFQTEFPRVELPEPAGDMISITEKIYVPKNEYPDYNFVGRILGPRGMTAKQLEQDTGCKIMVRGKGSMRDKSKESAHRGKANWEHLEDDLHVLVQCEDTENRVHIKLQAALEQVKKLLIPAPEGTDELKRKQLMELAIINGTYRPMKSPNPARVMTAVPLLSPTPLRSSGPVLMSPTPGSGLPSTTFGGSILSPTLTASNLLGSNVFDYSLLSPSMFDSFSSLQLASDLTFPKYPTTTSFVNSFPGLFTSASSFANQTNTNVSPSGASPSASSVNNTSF
Chain of G-protein coupled receptor 55 (Q9Y2T6 whole entry): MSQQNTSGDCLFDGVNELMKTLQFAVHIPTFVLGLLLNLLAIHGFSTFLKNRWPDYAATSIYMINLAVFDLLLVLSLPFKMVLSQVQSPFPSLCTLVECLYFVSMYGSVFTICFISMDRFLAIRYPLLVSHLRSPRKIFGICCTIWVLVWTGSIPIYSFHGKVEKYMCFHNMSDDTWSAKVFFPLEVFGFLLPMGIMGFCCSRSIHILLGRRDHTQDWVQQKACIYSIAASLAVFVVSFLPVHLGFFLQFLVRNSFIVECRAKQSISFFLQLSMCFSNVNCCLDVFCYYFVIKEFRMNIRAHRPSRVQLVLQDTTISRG
Chain of DNA dC->dU-editing enzyme APOBEC-3A (P31941 whole entry): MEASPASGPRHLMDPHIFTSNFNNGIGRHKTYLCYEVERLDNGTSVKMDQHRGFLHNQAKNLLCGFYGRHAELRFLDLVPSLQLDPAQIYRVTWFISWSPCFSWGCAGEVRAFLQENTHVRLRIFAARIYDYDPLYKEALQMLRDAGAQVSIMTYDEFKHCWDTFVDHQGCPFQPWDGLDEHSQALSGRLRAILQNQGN

## O=c1[nH]c2cc3ccccc3cc2nc1C(F)(F)F
[1]
  IC50: 46.2 µM (inactive)
[2]
  IC50: > 66 µM (inactive)
Protein Rev
  IC50: > 75.5 µM (not active)
[3]
  IC50: 2.9 µM (active)

## CC[C@@]12CCCN3CC[C@@]4(c5ccc(OC)c(O)c5N(C(C)=O)[C@H]4CC1)[C@H]32
Cytochrome P450 2D6
  AC50: 20 µM (inconclusive)

## COc1cc(C(CC(=O)N2CCCC2)c2c(OC)cc(OC)c3c(-c4ccccc4)cc(=O)oc23)cc(OC)c1OC (configuration not stated)
[4]
  EC50: 6.57 µM (active)

## C=CCNC(=O)CCCOc1cc(C)ccc1C
[5]
  EC50: > 50 µM (not active)

## C=CCCC/C=C(/C)C(OCc1ccc(OC)cc1)C(CC/C=C(\C)C(N)=O)OC (configuration not stated)
Cytochrome P450 2D6
  AC50: 3.16 µM (inconclusive)
Cytochrome P450 2C19
  AC50: 2.51 µM (inconclusive)

## CCCn1c(=O)nc(NCc2ccc(C)cc2)[nH]c1=O
[6]
  IC50: > 100 µM (not active)
[7]
  IC50: > 100 µM (not active)
[8]
  IC50: > 100 µM (inactive)
[9]
  IC50: > 100 µM (inactive)

## CCN(C1CCCCC1)S(=O)(=O)c1ccc(OC)c(C)c1
[10]
  EC50: > 50 µM (active)
[11]
  EC50: 3.88 µM (active)

## CCOC(=O)c1cnc(-n2nc(C)cc2C)nc1NCc1ccccc1
[12]
  EC50: 8.49 µM (active)
[13]
  EC50: > 60 µM (not active)
[14]
  EC50: 2.09 µM (active)
INS1
  AC50: 5.4 µM (active)
Streptokinase A
  EC50: > 150 µM (not active)
[15]
  IC50: 5.83 µM (active)
[16]
  IC50: > 67 µM (not active)
Streptococcus
  EC50: 9.69 µM (active)

## COC(=O)c1cc2c(C)cc3ccc(C)cn3c-2c1C(=O)OC
Protein Rev
  IC50: 12.2 µM (not active)
[3]
  IC50: > 2.21 µM (active)

## CCc1ccc(Nc2n[n+](-c3ccccc3)c(-c3cc(OC)c(OC)cc3Br)s2)cc1
[4]
  EC50: 21.2 µM (inactive)

## C/C(=N\O)c1ccc2c3ccccc3n(C)c2c1
[5]
  EC50: > 50 µM (not active)

## CCOC(=O)C1Nc2c(OC)cccc2C2OCCC12 (configuration not stated)
[6]
  IC50: > 100 µM (not active)
[7]
  IC50: > 100 µM (not active)
[8]
  IC50: > 100 µM (inactive)
[9]
  IC50: > 100 µM (inactive)

## Cc1ccsc1/C=N/n1c(S)nnc1-c1ccco1
[17]
  IC50: > 100 µM (inactive)
[18]
  IC50: 1.79 µM (active)

## CCC(=O)N1CCN(c2ccccc2NC(=O)COc2cc(C)ccc2C(C)C)CC1
[11]
  EC50: 2.97 µM (active)
H9c2
  IC50: > 79 µM (inactive)

## Cc1cc(/C=c2/sc3nc4ccccc4n3c2=O)c(C)n1-c1ccccn1
[19]
  EC50: < 0.1 µM (active)
[20]
  EC50: > 300 µM (not active)
[21]
  EC50: 0.084 µM (active)
[22]
  EC50: 0.092 µM (active)
[23]
  EC50: > 300 µM (not active)
[24]
  EC50: < 0.16 µM (active)
cells
  EC50: 0.076 µM (active)
